Reference: patent US11229680B2, “Autophagy inhibitors” (The Hong Kong University of Science and Technology, priority 2017, dated 2022)
Several values for one entry are separate records, joined by “and”; a condition that tells them apart may be missing. Equal entries are not always repeated.

Tests used:
SQST-1::GFP = SQST-1::GFP aggregate accumulation in C. elegans expressing the peptides; format: in vivo
Source text: We next determined whether the AnkB WT peptide blocks autophagy in C. elegans. Autophagy is required for degradation of a variety of protein substrates, including the C. elegans p62 homolog SQST-1 during development (Tian et al., 2010). In the wild type animals, SQST-1::GFP is weakly expressed and diffusely localized in the cytoplasm, while numerous SQST-1 aggregates accumulate in autophagy mutants (Tian et al., 2010). The AnkB WT peptide fused with the Cherry reporter (Cherry::AnkB WT) or Cherry::AnkB WR was expressed under the control of the nfya-1 promoter, which is expressed ubiquitously from the embryonic to adult stages. The expression plasmids were injected into animals carrying integrated SQST-1::GFP reporter (bpIs151) and transgenic lines were obtained and analyzed.
Similarly, we also tested the blocking effect of AnkG peptides in C. elegans. […] This observation is somewhat different from that in mammalian heterologous cells. This may be explained by the different roles of the two families in different organisms. In mammal, p62 degradation is dependent on LC3 but not GABARAP (Maruyama et al., 2014), so blocking GABARAP binding has minimal effect on p62 degradation. However, in C. elegans, LGG-1 acts upstream to LGG-2 (Manil-Segalen et al., 2014; Wu et al., 2015), so blocking either of them will lead to defect in SQST-1 degradation.
Although a large collection of autophagy mutants were isolated from genetic screens (Tian et al., 2010), assays to inhibit autophagy activity in a spatiotemporal manner are not available. We investigated whether the AnkB peptide can block autophagy in a tissue- and temporal-specific manner. The AnkB peptide was expressed under the control of tissue-specific promoters, including the promoter of myo-3 for body wall muscle cells, y37A1B.5 for hypodermal cells and vha-6 for intestinal cells. The expression constructs were injected into animals carrying the corresponding tissue-specific SQST-1::GFP expression integrated lines.
We also examined whether the AnkB peptide can impair autophagy in a temporal control manner. The expression of AnkB WT was driven by the promoter of col-19, which is expressed in hypodermal cells from the young adult stage onwards.

LGG-2 = biological target: T1, LGG-2 (Caenorhabditis elegans, UniProt Q23536); assay: ITC binding to purified LGG-2; design: species or system C. elegans
T1 sequence (Q23536 1-130): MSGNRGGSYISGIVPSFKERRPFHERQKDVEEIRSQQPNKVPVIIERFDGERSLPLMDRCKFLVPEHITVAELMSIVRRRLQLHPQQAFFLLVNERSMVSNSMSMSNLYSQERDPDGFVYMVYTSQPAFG
Source text: (§1) C. elegans provides an ideal platform to study autophagy and especially to investigate roles of different members of Atg8 in autophagy, because worms contain both GABARAP and LC3 subfamily Atg8s and yet simple enough with one gene for each subfamily (worm lgg-1 and lgg-2 are […] of GABARAP and LC3, respectively). It has also been shown earlier on that lgg-1 and lgg-2 act non-redundantly in autophagy (Wu et al., 2015). Prior to performing autophagy assays in worms, we measured the bindings of various AnkB/G LIR peptides to purified LGG-1 and LGG-2 using the same method as we have described for FIGS. 1&3.

[1] = system: LC3s (LC3A, LC3B, LC3C) (Homo sapiens); assay: ITC binding to LC3s
LC3s (LC3A, LC3B, LC3C) [2] = assay: ITC binding to LC3s; design: species or system human; conditions: LC3A, LC3B, LC3C
[3] = system: LC3-positive puncta in COS7 cells; assay: LC3-positive puncta in starved COS7 cells; format: cell-based; conditions: COS7 cells over-expressing mCherry-tagged peptide, nutrients deprivation
Source text: (§2) We used the well-established cultured COS7 cells for assessing autophagy inhibitions by the AnkB/G LIR peptides over-expressed in the cells. We quantified the numbers of endogenous LC3- or GABARAP-positive puncta, which represent LC3 or GABARAP-containing autophagic structures, as readouts to quantify autophagy inhibitions (Klionsky et al., 2016; Mizushima et al., 2010). After nutrients deprivation, obvious accumulations of LC3- or GABARAP-positive puncta could be observed in cells over-expressing mCherry only, indicating induction of autophagy by starvation (FIG. 6C6&E6). […] In contrast, expression of the mCherry-AnkB WR peptide had no impact on the LC3- or GABARAP-puncta numbers (i.e. with the same puncta numbers as expressing the mCherry vector control; FIG. 6C-F).

[4] = system: GABARAP-positive puncta in COS7 cells; assay: GABARAP-positive puncta in starved COS7 cells; format: cell-based; conditions: COS7 cells over-expressing mCherry-tagged peptide, nutrients deprivation
Source text: as §2

[5] = system: p62-positive puncta in COS7 cells; assay: p62-positive puncta in starved COS7 cells; format: cell-based; conditions: starvation; for p62-positive puncta versus mCherry vector control: COS7 cells expressing mCherry-tagged peptide
Source text: We further quantified the level of p62, one of the best studied selective autophagy substrates, to monitor the autophagic flux in COS7 cells expressing various AnkB/G LIR peptides under the starvation condition (Klionsky et al., 2016; Mizushima et al., 2010). Upon autophagy induction, p62 forms aggregates via its LIR motif-mediated interactions to Atg8s and subsequent incorporation into autophagosomes (Bjorkoy et al., 2005; Pankiv et al., 2007). Only a relatively low and steady level of p62 aggregates is formed if autophagy flux is normal (i.e. p62-positive autophagosomes are steadily cleared by fusing with lysosomes; (Bjorkoy et al., 2005)), and this is indeed the case when cells were expressed with the mCherry vector control (FIG. 7F). […] This is consistent with a previous siRNA-based study showing that knockdown of LC3 but not GABARAP causes p62 accumulation in COS7 cells (Maruyama et al., 2014). Taken together, the above cell-based assays reinforce our earlier conclusion derived from biochemical and structural studies, that the AnkB WT peptide can function as potent autophagy inhibitor by targeting all members of the Atg8 family and the AnkG WT or ER peptides can selectively target the GABARAPs and spare the LC3s.

GABARAP = assay: ITC binding to GABARAP; design: species or system human
LGG-1 = LGG-1 (Caenorhabditis elegans, UniProt Q09490); assay: ITC binding to purified LGG-1; design: species or system C. elegans
Source text: as §1

C. elegans [6] = assay: C. elegans hatching and development; format: in vivo; conditions: Pnfya-1::Cherry fusion
Source text: Autophagy plays critical roles in various physiological processes occurring during development or in adult C. elegans (Zhang et al., 2015). Fewer autophagy mutants develop into larvae. […] 60.8% embryos expressing the AnkB WT peptide hatched, compared to 96.9% of embryos expressing AnkB WR (FIG. 8G). Autophagy mutants also grow slowly. […] Thus, the AnkB WT peptide blocks autophagy during C. elegans development.

[7] = system: GFP-RFP-LC3B puncta in COS7 cells; assay: Autophagosome marker co-localization in COS7 cells co-transfected with GFP-RFP-LC3B; format: cell-based; conditions: Myc tagged peptide, low expression level
Source text: We next tried to explore the potential applications of the Ank-derived peptides as autophagosome markers. The COS7 cells were co-transfected with GFP-RFP-LC3B and Myc tagged AnkB WT or AnkB WR peptides. […] LC3B are mainly localized on the autophagosome as vast majority of the puncta are both green and red (FIG. 11A).

[8] = system: all members of the Atg8 family; assay: ITC binding to all members of the Atg8 family; design: species or system human
Source text: The 440 kD AnkB and 480 kD AnkG both contain a giant exon encoding several thousand amino acid residues, though the homology between the two giant exon coding sequences is very limited. The 440 kD AnkB is also a neuronal specific isoform, and is mainly expressed in unmyelinated/premyelinated axons.
Thus, we will not describe the overall structures of the two complexes any further, except to note that the AnkB LIR also contains a well-defined C-helix extension following the LIR core motif.

C. elegans [9] = assay: C. elegans life span; format: in vivo
Source text: Autophagy is known to regulate the adult worm aging process. […] The autophagy defect caused by AnkB was weaker than that in autophagy mutants.

LC3s (LC3A, LC3B, LC3C) [10] = conditions: recently identified LC3 binding sequence (Cheng et al., 2016; Olsvik et al., 2015); cited from earlier work

Chain of LGG-1 (Q09490 1-116 limits assumed): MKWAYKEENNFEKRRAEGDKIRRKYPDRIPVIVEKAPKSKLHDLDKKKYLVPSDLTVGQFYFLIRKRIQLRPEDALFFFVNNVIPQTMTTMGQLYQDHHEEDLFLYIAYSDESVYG

CC[C@H](C)[C@H](NC(=O)[C@H](CCC(=O)O)NC(=O)[C@H](CCC(=O)O)NC(=O)[C@H](CO)NC(=O)[C@H](CO)NC(=O)[C@H](Cc1ccccc1)NC(=O)[C@H](CCC(=O)O)NC(=O)[C@@H](NC(=O)[C@H](Cc1c[nH]c2ccccc12)NC(=O)[C@H](CC(=O)O)NC(=O)[C@H](CC(=O)O)NC(=O)[C@H](CCC(=O)O)NC(=O)[C@@H]1CCCN1)[C@@H](C)O)C(=O)N[C@@H](CCCNC(=N)N)C(=O)N[C@@H](CCC(=O)O)C(=O)N[C@@H](C)C(=O)N[C@@H](CCCNC(=N)N)C(=O)N[C@@H](CCC(N)=O)C(=O)N[C@@H](C)C(=O)N[C@@H](C)C(=O)N[C@@H](C)C(=O)N[C@@H](CO)C(=O)N[C@@H](Cc1c[nH]cn1)C(=O)N[C@@H](C)C(=O)N1CCC[C@H]1C(=O)N[C@@H](CO)C(=O)O [AnkG LIR]
SQST-1::GFP aggregates (SQST-1::GFP; Cherry fusion, hyp7 promoter, epidermis, embryonic to adult stages): caused accumulation of SQST-1::GFP aggregates | SQST-1::GFP aggregates (SQST-1::GFP; Phyp7::mCherry::AnkG peptides, hypodermis, L4 larvae): a large number of SQST-1::GFP aggregates accumulate | SQST-1::GFP aggregates (SQST-1::GFP; mCherry::AnkG peptides, embryonic stage (FIG. 10B-D)): accumulation of the SQST-1::GFP aggregates | weaker affinity towards LGG-2 than LGG-1 (LGG-2): about 130 fold | binding to LC3 (in words) [1]: much weaker affinity than to GABARAPs | Kd values of binding to the LC3s (LC3s (LC3A, LC3B, LC3C) [2]): hundreds to thousands | LC3-positive puncta number [3]: only modestly reduced | GABARAP-positive puncta number [4]: potently inhibited | p62-positive puncta versus mCherry vector control [5]: obviously increased | p62 puncta increase compared with AnkB WT peptide ([5]; COS7 cells): significantly lower | binding to GABARAP stronger than almost all reported bindings between LIR motifs and Atg8s (GABARAP; ITC): ~1000 fold | Kd (GABARAP; isothermal titration calorimetry (ITC)): ~2.6 nM and 2.6 nM | binding to LGG-1 (in words) (LGG-1): binds strongly

AnkB W1592R: AnkB LIR with Trp1592 substituted by Arg; control for functional studies (VEEERVIVSDEEIEEARQKAPLEITEY; AnkB W1592R human recombinant peptide, prepared in the lab)
SQST-1::GFP aggregates (SQST-1::GFP; Cherry fusion, FIG. 8, embryo): no SQST-1::GFP aggregates | SQST-1::GFP aggregates (SQST-1::GFP; Cherry fusion, FIG. 8, larvae): no SQST-1::GFP aggregates | SQST-1::GFP aggregates (SQST-1::GFP; Cherry fusion, nfya-1 promoter (ubiquitous), multiple tissues, embryonic to adult stages): no SQST-1::GFP aggregates were formed | SQST-1::GFP aggregates (SQST-1::GFP; mCherry fusion, hypodermal cells, embryo (FIG. 9)): no SQST-1::GFP aggregates | SQST-1::GFP aggregates (SQST-1::GFP; mCherry fusion, hypodermis, L4 larvae (FIG. 9)): no SQST-1::GFP aggregates | SQST-1::GFP aggregates (SQST-1::GFP; myo-3 promoter, muscle cells, L4 larvae): no SQST-1::GFP aggregates | SQST-1::GFP aggregates (SQST-1::GFP; myo-3 promoter, muscle, embryo): no SQST-1::GFP | SQST-1::GFP aggregates (SQST-1::GFP; tissue-specific promoters myo-3, y37A1B.5, vha-6, embryonic to adult stages): no accumulation | SQST-1::GFP aggregates (SQST-1::GFP; vha-6 promoter, intestine cells, embryo): no SQST-1::GFP aggregates | SQST-1::GFP aggregates (SQST-1::GFP; vha-6 promoter, intestine cells, larvae (FIG. 10S, 10T)): no SQST-1::GFP aggregates | binding to LGG-2 (in words) (LGG-2; purified LGG-2): eliminated the bindings | embryos hatched (hatch rate) (C. elegans [6]): 96.9% | LC3-positive puncta number [3]: no impact | GABARAP-positive puncta number [4]: no impact | p62-positive puncta versus mCherry vector control [5]: neither of the AnkB/G WR peptides could induce p62-positive puncta increase | localization relative to GFP-RFP-LC3B dual-color (autophagosome) puncta [7]: diffused in the cells | binding to LGG-1 (in words) (LGG-1): eliminated the bindings | binding to Atg8 family members (in words) [8]: dramatically decreased | Median lifespan (C. elegans [9]; Pmyo-3::ch:: fusion (muscle)): 18.72 days | Median lifespan (C. elegans [9]; Pnfya-1::ch:: fusion (ubiquitous)): 19.15 days | Median lifespan (C. elegans [9]; Pvha-6::ch:: fusion (intestine)): 18.13 days | Median lifespan (C. elegans [9]; Py37a1b.5::ch:: fusion (hypodermal cells)): 18.63 days

FYCO1 LIR: recently identified LC3 binding sequence from FYCO1 with a one-turn helix extension (DDAVFDIITDEELCQIQESGSSLPET; FYCO1 recombinant human sequence, prepared in lab)
binding to LC3 compared with bindings of AnkB LIR to Atg8 (LC3s (LC3A, LC3B, LC3C) [10]): significantly weaker
